From patent US4906565A, “Method for the selective detection of microbial nucleotides” (Minnesota Mining and Manufacturing Company, priority 1986, dated 1990)
Where “and” joins values, the source holds several entries; their conditions need not be identical. Equal values may be shown once.

How the values were obtained:
Format in all cases: biochemical
glycerokinase = test: Inhibition of glycerokinase (protection of ATP), bioluminescent ATP assay in buffer; settings: for RLU 5 min. / RLU 10 min. / RLU 15 min. / RLU 0 min.: glycerokinase; for RLU 5 min.: 5 min. after glycerol; for RLU 10 min.: 10 min. after glycerol; for RLU 15 min.: 15 min. after glycerol; for RLU 0 min.: before glycerol added
Protocol: Assay: Glycerol was added last to the samples to initiate the enzyme's activity. Before glycerol was added a 50 μl aliquot was taken from all samples. ATP levels in those aliquots (expressed in RLU) were determined as time zero values. Next glycerol was added to the mixtures and further 50 μl aliquots were taken at 5, 10, and 15 minutes. ATP in all aliquots was measured by bioluminescent means as described. Results:
Assay: Glycerol was added last to the samples to initiate the enzyme's activity. Before glycerol was added a 50 μl aliquot was taken from all samples as time zero. Next glycerol was added to the samples and after 5, 10 and 15 minutes, 50 μl aliquots were again taken. ATP in all aliquots was measured as described.
Assay: Glycerol was added last to the samples to initiate the enzyme's activity. Before glycerol was added a 50 μl aliquot was taken from all samples as time zero. At 5, 10 and 15 minutes after addition of glycerol further 50 μl aliquots were taken from the samples. ATP in all aliquots was measured as described.

firefly luciferase [1] = target: T1, firefly luciferase (Photinus pyralis, UniProt P08659); test: Effect of inhibitor on the bioluminescent assay of ATP
T1 construct: purchased Lumac/3M Lumit PM
T1 sequence (P08659 whole entry): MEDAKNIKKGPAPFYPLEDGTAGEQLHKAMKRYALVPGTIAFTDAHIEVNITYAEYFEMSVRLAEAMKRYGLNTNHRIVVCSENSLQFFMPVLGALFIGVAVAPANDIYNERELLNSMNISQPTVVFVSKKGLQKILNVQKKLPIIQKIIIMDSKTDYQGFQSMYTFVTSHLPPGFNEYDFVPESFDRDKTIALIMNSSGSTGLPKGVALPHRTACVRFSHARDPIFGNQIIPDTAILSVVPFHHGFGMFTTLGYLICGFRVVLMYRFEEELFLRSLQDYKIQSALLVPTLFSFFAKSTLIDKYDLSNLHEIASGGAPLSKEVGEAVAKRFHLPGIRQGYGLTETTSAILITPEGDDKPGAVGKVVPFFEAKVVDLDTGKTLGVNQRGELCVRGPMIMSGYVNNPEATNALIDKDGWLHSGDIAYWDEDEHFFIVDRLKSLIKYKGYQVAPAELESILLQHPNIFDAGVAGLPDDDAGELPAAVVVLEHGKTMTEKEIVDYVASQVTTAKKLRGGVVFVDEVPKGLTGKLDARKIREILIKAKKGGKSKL
Protocol: Assay: from each sample triplicate 100 μl aliquots were taken. In those aliquots ATP was measured as described.
Assay: from each sample triplicate 100 μl aliquots were taken. ATP in those aliquots was measured as described.
Assay: From each sample triplicate 100 μl aliquots were taken and ATP was measured as described.
Protocol: Eight samples were prepared using materials described above and previously, as shown in TABLE 7-1 and incubated for various periods of time (i.e., 0, 5, 10 and […]) before aliquots were taken and assayed as described.
Protocol: Increasing concentrations of hexokinase, with and without PCMPSA were prepared according to TABLE 8-1 using materials described above and previously.

firefly luciferase [2] = target: T1, firefly luciferase; test: as above; settings: for RLU mean / RLU, triplicate aliquots 1, 2, 3: no kinase
[3] = DNFB 0.0827 mM, ATP in Lumit buffer
[4] = DNFB 0.827 mM, ATP in Lumit buffer
[5] = DNFB 8.27 mM, ATP in Lumit buffer

O=[N+]([O-])c1ccc(F)c([N+](=O)[O-])c1 [DNFB]
inhibition of glycerokinase (conclusion in words) (glycerokinase; 0.0827 mM DNFB): not effectively inhibited | inhibition of glycerokinase (conclusion in words) (glycerokinase; 0.27 mM DNFB (so in the source)): effectively inhibited | inhibition of glycerokinase (conclusion in words) (glycerokinase; 8.27 mM DNFB (so in the source)): moderately inhibited | RLU 5 min. (glycerokinase; DNFB 0.0827 mM): 11 RLU | RLU 10 min. (glycerokinase; DNFB 0.0827 mM): 11 RLU | RLU 15 min. (glycerokinase; DNFB 0.0827 mM): 18 RLU | RLU 0 min. (glycerokinase; DNFB 0.0827 mM): 7025 RLU | RLU 5 min. (glycerokinase; DNFB 0.827 mM): 1585 RLU | RLU 10 min. (glycerokinase; DNFB 0.827 mM): 1498 RLU | RLU 15 min. (glycerokinase; DNFB 0.827 mM): 1618 RLU | RLU 0 min. (glycerokinase; DNFB 0.827 mM): 7402 RLU | RLU 5 min. (glycerokinase; DNFB 8.27 mM): 7785 RLU | RLU 10 min. (glycerokinase; DNFB 8.27 mM): 7965 RLU | RLU 15 min. (glycerokinase; DNFB 8.27 mM): 7968 RLU | RLU 0 min. (glycerokinase; DNFB 8.27 mM): 8002 RLU | % of control (firefly luciferase [1]; DNFB 0.0827 mM, control = ethanol, 0 mM DNFB): 106% | interference with the bioluminescent assay of ATP by firefly luciferase (conclusion in words) (firefly luciferase [1]; DNFB concentrations of Example 3): does not interfere | RLU mean (firefly luciferase [2]; [3]): 15429 RLU | RLU, triplicate aliquots 1, 2, 3 (firefly luciferase [2]; [3]): 15157 RLU and 15625 RLU and 15507 RLU | RLU mean (firefly luciferase [2]; [4]): 15914 RLU | RLU, triplicate aliquots 1, 2, 3 (firefly luciferase [2]; [4]): 16060 RLU and 15753 RLU and 15929 RLU | % of control (firefly luciferase [2]; DNFB 0.827 mM, control = ethanol, 0 mM DNFB): 110% | RLU mean (firefly luciferase [2]; [5]): 14784 RLU | RLU, triplicate aliquots 1, 2, 3 (firefly luciferase [2]; [5]): 14498 RLU and 14780 RLU and 15076 RLU | % of control (firefly luciferase [2]; DNFB 8.27 mM, control = ethanol, 0 mM DNFB): 102.2%

CCN1C(=O)C=CC1=O [NEM, N-ethylmaleimide]
RLU 5 min. (glycerokinase; NEM 4.10 mM): 7275 RLU | RLU 10 min. (glycerokinase; NEM 4.10 mM): 6398 RLU | RLU 15 min. (glycerokinase; NEM 4.10 mM): 5922 RLU | RLU 0 min. (glycerokinase; NEM 4.10 mM): 7635 RLU | RLU 5 min. (glycerokinase; NEM 8.14 mM): 7130 RLU | RLU 10 min. (glycerokinase; NEM 8.14 mM): 6623 RLU | RLU 15 min. (glycerokinase; NEM 8.14 mM): 6365 RLU | RLU 0 min. (glycerokinase; NEM 8.14 mM): 7742 RLU | RLU 5 min. (glycerokinase; NEM 12.1 mM): 7413 RLU | RLU 10 min. (glycerokinase; NEM 12.1 mM): 6812 RLU | RLU 15 min. (glycerokinase; NEM 12.1 mM): 6997 RLU | RLU 0 min. (glycerokinase; NEM 12.1 mM): 7660 RLU | RLU 5 min. (glycerokinase; NEM 19.8 mM): 7138 RLU | RLU 10 min. (glycerokinase; NEM 19.8 mM): 6547 RLU | RLU 15 min. (glycerokinase; NEM 19.8 mM): 6820 RLU | RLU 0 min. (glycerokinase; NEM 19.8 mM): 7406 RLU | RLU 5 min. (glycerokinase; NEM 16. mM): 7192 RLU | RLU 10 min. (glycerokinase; NEM 16. mM): 7002 RLU | RLU 15 min. (glycerokinase; NEM 16. mM): 6962 RLU | RLU 0 min. (glycerokinase; NEM 16. mM): 7199 RLU | inhibition of glycerokinase (conclusion in words) (glycerokinase; each NEM concentration tested (4.10-19.8 mM)): seems to be inhibited | % of control (firefly luciferase [1]; NEM 19.8 mM, control = 0 mM NEM): 86.3% | RLU mean (firefly luciferase [2]; NEM 4.10 mM, ATP in buffer): 14410 RLU | RLU, triplicate aliquots 1, 2, 3 (firefly luciferase [2]; NEM 4.10 mM, ATP in buffer): 14387 RLU and 14794 RLU and 14051 RLU | % of control (firefly luciferase [2]; NEM 4.10 mM, control = 0 mM NEM): 97.6% | RLU mean (firefly luciferase [2]; NEM 8.14 mM, ATP in buffer): 14608 RLU | RLU, triplicate aliquots 1, 2, 3 (firefly luciferase [2]; NEM 8.14 mM, ATP in buffer): 14401 RLU and 14667 RLU and 14756 RLU | % of control (firefly luciferase [2]; NEM 8.14 mM, control = 0 mM NEM): 99.0% | RLU mean (firefly luciferase [2]; NEM 12.1 mM, ATP in buffer): 13737 RLU | RLU, triplicate aliquots 1, 2, 3 (firefly luciferase [2]; NEM 12.1 mM, ATP in buffer): 14139 RLU and 13794 RLU and 13279 RLU | % of control (firefly luciferase [2]; NEM 12.1 mM, control = 0 mM NEM): 93.1% | RLU mean (firefly luciferase [2]; NEM 16.0 mM, ATP in buffer): 13212 RLU | RLU, triplicate aliquots 1, 2, 3 (firefly luciferase [2]; NEM 16.0 mM, ATP in buffer): 12750 RLU and 13438 RLU and 13448 RLU | % of control (firefly luciferase [2]; NEM 16.0 mM, control = 0 mM NEM): 89.5% | RLU mean (firefly luciferase [2]; NEM 19.8 mM, ATP in buffer): 12747 RLU | RLU, triplicate aliquots 1, 2, 3 (firefly luciferase [2]; NEM 19.8 mM, ATP in buffer): 13534 RLU and 12596 RLU and 12111 RLU | RLU mean (firefly luciferase [2]; NEM .414 mM, ATP in buffer): 14962 RLU | RLU, triplicate aliquots 1, 2, 3 (firefly luciferase [2]; NEM .414 mM, ATP in buffer): 15071 RLU and 15081 RLU and 14735 RLU | % of control (firefly luciferase [2]; NEM .414 mM, control = 0 mM NEM): 101.4% | interference with the bioluminescent assay of ATP (conclusion in words) (firefly luciferase [2]; NEM concentrations of Example 5): interferes only moderately, if at all
